Source: BindingDB's records for doi:10.1021/jm00222a039 (1978)

Experiment: Inhibition of HMG-coA reductase in CD rat liver microsomal-cytosol fraction assessed as inhibition of fatty acid synthesis using [2-14C]acetate as substrate after 90 mins by scintillation counting analysis

Row | SMILES | IC50
1 | CC(CCc1ccc(-c2ccccc2)cc1)CC(=O)O (configuration not stated) | 80 µM
2 | CC(CC(=O)O)CC(=O)c1ccc(-c2ccccc2)cc1 (configuration not stated) | 1200 µM
3 | CC(CC(=O)O)CC(=O)c1ccc(Oc2ccccc2)cc1 (configuration not stated) | 2100 µM
4 | CC(CC(=O)O)CC(=O)c1ccc(Sc2ccccc2)cc1 (configuration not stated) | 780 µM
5 | CC(CC(=O)O)CC(=O)c1ccc2oc3ccccc3c2c1 (configuration not stated) | 430 µM
6 | CC(CC(=O)O)CC(=O)c1ccc2sc3ccccc3c2c1 (configuration not stated) | 930 µM
7 | CC(CCc1ccc(Oc2ccccc2)cc1)CC(=O)O (configuration not stated) | 80 µM
8 | CC(CCc1ccc(Sc2ccccc2)cc1)CC(=O)O (configuration not stated) | 100 µM
9 | CC(CCc1ccc(S(=O)(=O)c2ccccc2)cc1)CC(=O)O (configuration not stated) | 80 µM
10 | CC(CCc1ccc2oc3ccccc3c2c1)CC(=O)O (configuration not stated) | 1600 µM
11 | CC(CCc1ccc2sc3ccccc3c2c1)CC(=O)O (configuration not stated) | 860 µM
12 | CC(CCc1ccc2c(c1)-c1ccccc1S2(=O)=O)CC(=O)O (configuration not stated) | 30 µM
